Laboratory results taken from PubChem BioAssay AID1919006 (Molecular Pharmacology Branch, DTP, NCI, 2023).

Tested on: 885512-296-R-J2-PDC complex spheroid growth, % test/control
Assay: Anticancer human tumor 885512-296-R-J2-PDC patient-derived breast carcinoma cell line growth inhibition [AhR]
Details: for IC50: curve of first compound; for viability, T/C: stronger effect = lower value
In short: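 Complex tumor spheroids co-cultured with HUVEC and human MSC stroma; AhR antagonists tested in combination with standard-of-care and investigational agents. Top concentration at or near clinical Cmax (else 10 microM), half-log dilutions; growth expressed as percent test/control.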

[1] = second compound 0.1 µM, first compound 0.0316 µM
[2] = second compound 0.1 µM, first compound 0.1 µM
[3] = second compound 0.1 µM, first compound 0.316 µM
[4] = second compound 0.1 µM, first compound 1 µM
[5] = second compound 0.1 µM, first compound 3.16 µM
[6] = second compound 0.1 µM, first compound 10 µM
[7] = second compound 0.316 µM, first compound 0.0316 µM
[8] = second compound 0.316 µM, first compound 0.1 µM
[9] = second compound 0.316 µM, first compound 0.316 µM
[10] = second compound 0.316 µM, first compound 1 µM
[11] = second compound 0.316 µM, first compound 3.16 µM
[12] = second compound 0.316 µM, first compound 10 µM
[13] = second compound 1 µM, first compound 0.0316 µM
[14] = second compound 1 µM, first compound 0.1 µM
[15] = second compound 1 µM, first compound 0.316 µM
[16] = second compound 1 µM, first compound 1 µM
[17] = second compound 1 µM, first compound 3.16 µM
[18] = second compound 1 µM, first compound 10 µM
[19] = second compound 3.16 µM, first compound 0.0316 µM
[20] = second compound 3.16 µM, first compound 0.1 µM
[21] = second compound 3.16 µM, first compound 0.316 µM
[22] = second compound 3.16 µM, first compound 1 µM
[23] = second compound 3.16 µM, first compound 3.16 µM
[24] = second compound 3.16 µM, first compound 10 µM
[25] = second compound 10 µM, first compound 0.0316 µM
[26] = second compound 10 µM, first compound 0.1 µM
[27] = second compound 10 µM, first compound 0.316 µM
[28] = second compound 10 µM, first compound 1 µM
[29] = second compound 10 µM, first compound 3.16 µM
[30] = second compound 10 µM, first compound 10 µM
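Also: spheroids exposed to compounds for seven days.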

Structure (SMILES): CC(C)c1c(-c2ccccc2)nc2c(C#N)c[nH]n2c1=O + Cc1ccccc1N=Nc1ccc(NC(=O)c2ccnn2C)c(C)c1
- IC50 (second compound 0.1 µM): > 10000 nM
- IC50 (second compound 0.316 µM): > 10000 nM
- IC50 (second compound 1 µM): > 10000 nM
- IC50 (second compound 3.16 µM): > 10000 nM
- IC50 (second compound 10 µM): < 31.6 nM
- viability, T/C [1]: 105%
- viability, T/C [2]: 106%
- viability, T/C [3]: 108%
- viability, T/C [4]: 110%
- viability, T/C [5]: 111%
- viability, T/C [6]: 104%
- viability, T/C [7]: 106%
- viability, T/C [8]: 104%
- viability, T/C [9]: 111%
- viability, T/C [10]: 104%
- viability, T/C [11]: 102%
- viability, T/C [12]: 99.4%
- viability, T/C [13]: 96.2%
- viability, T/C [14]: 94.4%
- viability, T/C [15]: 98.4%
- viability, T/C [16]: 98.6%
- viability, T/C [17]: 90%
- viability, T/C [18]: 96.4%
- viability, T/C [19]: 80.9%
- viability, T/C [20]: 79.2%
- viability, T/C [21]: 82.7%
- viability, T/C [22]: 88%
- viability, T/C [23]: 81.8%
- viability, T/C [24]: 67.3%
- viability, T/C [25]: 45.5%
- viability, T/C [26]: 50.8%
- viability, T/C [27]: 55.2%
- viability, T/C [28]: 45.4%
- viability, T/C [29]: 47.4%
- viability, T/C [30]: 42%

Structure (SMILES): CC1COCCN1c1cc(-c2ccnn2C)c2ccnc(-c3ccn[nH]3)c2n1 (stereo not given) + Cc1ccccc1N=Nc1ccc(NC(=O)c2ccnn2C)c(C)c1
- IC50 (second compound 0.1 µM): 35.4 nM
- IC50 (second compound 0.316 µM): 42 nM
- IC50 (second compound 1 µM): 40.5 nM
- IC50 (second compound 3.16 µM): 41 nM
- IC50 (second compound 10 µM): 11.8 nM
- viability, T/C (second compound 0.1 µM, first compound 0.00316 µM): 97.7%
- viability, T/C (second compound 0.1 µM, first compound 0.01 µM): 97.6%
- viability, T/C [1]: 53.6%
- viability, T/C [2]: 11.1%
- viability, T/C [3]: 3.35%
- viability, T/C [4]: 2.33%
- viability, T/C (second compound 0.316 µM, first compound 0.00316 µM): 108%
- viability, T/C (second compound 0.316 µM, first compound 0.01 µM): 87.6%
- viability, T/C [7]: 65.3%
- viability, T/C [8]: 10.9%
- viability, T/C [9]: 3.03%
- viability, T/C [10]: 2.67%
- viability, T/C (second compound 1 µM, first compound 0.00316 µM): 98.4%
- viability, T/C (second compound 1 µM, first compound 0.01 µM): 85.5%
- viability, T/C [13]: 61.6%
- viability, T/C [14]: 12%
- viability, T/C [15]: 4.35%
- viability, T/C [16]: 2.65%
- viability, T/C (second compound 3.16 µM, first compound 0.00316 µM): 89.8%
- viability, T/C (second compound 3.16 µM, first compound 0.01 µM): 86.3%
- viability, T/C [19]: 61.6%
- viability, T/C [20]: 10.3%
- viability, T/C [21]: 3.42%
- viability, T/C [22]: 2.63%
- viability, T/C (second compound 10 µM, first compound 0.00316 µM): 57.1%
- viability, T/C (second compound 10 µM, first compound 0.01 µM): 47.7%
- viability, T/C [25]: 38.3%
- viability, T/C [26]: 7.15%
- viability, T/C [27]: 2.64%
- viability, T/C [28]: 2.57%

Structure (SMILES): COc1ccc([C@@H](O)c2cc(-c3ncnc4cc(N5CCOCC5)ccc34)c(F)cc2Cl)nn1 + Cc1ccccc1N=Nc1ccc(NC(=O)c2ccnn2C)c(C)c1
- IC50 (second compound 0.1 µM): 8290 nM
- IC50 (second compound 0.316 µM): 7980 nM
- IC50 (second compound 1 µM): 6550 nM
- IC50 (second compound 3.16 µM): 5960 nM
- IC50 (second compound 10 µM): < 31.6 nM
- viability, T/C [1]: 107%
- viability, T/C [2]: 106%
- viability, T/C [3]: 91%
- viability, T/C [4]: 80%
- viability, T/C [5]: 74%
- viability, T/C [6]: 44.3%
- viability, T/C [7]: 92.9%
- viability, T/C [8]: 117%
- viability, T/C [9]: 110%
- viability, T/C [10]: 95.7%
- viability, T/C [11]: 71.4%
- viability, T/C [12]: 44.8%
- viability, T/C [13]: 112%
- viability, T/C [14]: 96%
- viability, T/C [15]: 100%
- viability, T/C [16]: 78.9%
- viability, T/C [17]: 60%
- viability, T/C [18]: 44.2%
- viability, T/C [19]: 85.4%
- viability, T/C [20]: 92.9%
- viability, T/C [21]: 83.2%
- viability, T/C [22]: 69%
- viability, T/C [23]: 66.4%
- viability, T/C [24]: 38.9%
- viability, T/C [25]: 46.2%
- viability, T/C [26]: 49.9%
- viability, T/C [27]: 47%
- viability, T/C [28]: 48.3%
- viability, T/C [29]: 38.9%
- viability, T/C [30]: 26.2%

Structure (SMILES): COc1cccc2c1C(=O)c1c(O)c3c(c(O)c1C2=O)CC(O)(C(=O)CO)CC3OC1CC(N)C(O)C(C)O1 (stereo not given) + Cc1cncc(-c2nc(NCCc3c[nH]c4ccccc34)c3ncn(C(C)C)c3n2)c1
- IC50 (second compound 0.1 µM): < 31.6 nM
- IC50 (second compound 0.316 µM): < 31.6 nM
- IC50 (second compound 1 µM): < 31.6 nM
- IC50 (second compound 3.16 µM): < 31.6 nM
- IC50 (second compound 10 µM): < 31.6 nM
- viability, T/C [1]: 23.9%
- viability, T/C [2]: 15.2%
- viability, T/C [3]: 5.94%
- viability, T/C [4]: 0.65%
- viability, T/C [5]: 2.45%
- viability, T/C [6]: 1.44%
- viability, T/C [7]: 24.4%
- viability, T/C [8]: 19.5%
- viability, T/C [9]: 6.25%
- viability, T/C [10]: 0.34%
- viability, T/C [11]: 2.13%
- viability, T/C [12]: 1.46%
- viability, T/C [13]: 19.7%
- viability, T/C [14]: 17.9%
- viability, T/C [15]: 5.13%
- viability, T/C [16]: 0.84%
- viability, T/C [17]: 1.28%
- viability, T/C [18]: 1.33%
- viability, T/C [19]: 17.6%
- viability, T/C [20]: 12.1%
- viability, T/C [21]: 3.2%
- viability, T/C [22]: 0.73%
- viability, T/C [23]: 0.57%
- viability, T/C [24]: 0.58%
- viability, T/C [25]: 11.9%
- viability, T/C [26]: 5.06%
- viability, T/C [27]: 0.48%
- viability, T/C [28]: 0.21%
- viability, T/C [29]: 0.27%
- viability, T/C [30]: 0.26%
